One molecule from patent US20030157205A1, “Inhibitory and preventative effects of processed morinda citrifolia on mutagenesis and carcinogenesis in mammals” (priority 2001, published 2003) can be followed below.

This experiment relates to mammary gland carcinogenesis induced by 17 β-estradiol (E2). Kind of experiment: Estrogen (E2 pellet)-induced mammary carcinogenesis in female ACI rats. As to conditions: for survival rate: control 100%, placebo 0%. Format: in vivo. The source says: This study indicates the preventative effects of Methyl Sulfonyl Methane (MSM), processed Morinda citrifolia products (e.g., Tahitian Noni juice), and their combination on estrogen-induced mammary carcinogenesis in female ACI rats.
In the study, the preventative effects of MSM, Morinda citrifolia, and their combination on mammary gland carcinogenesis induced by 17 β-estradiol (estrogen)(E2) pellet implants in female ACI rats was studied. In the experiment, sixty (60), five week old female rats were divided into four groups, fifteen (15) rats each, and placed on regular diets. Another eight (8) female ACI rats were served as the age-matched controls. Five percent placebo, five percent Morinda citrifolia, five percent MSM, a combination of five percent Morinda citrifolia and MSM in drinking water was supplied to the animals in different groups until ninety days after E2 implantation. Two weeks later, all animals were implanted subcutaneously with a 25 mg pellet containing 22.5 mg of 17 β-estradiol (e2) mixed with 2.5 mg cholesterol, and the age-matched control animals received a 25 mg cholesterol pellet implant.

In the case of `CS(C)(=O)=O` [MSM, Methyl Sulfonyl Methane], the body weight loss entry (5% in drinking water, E2-implanted female ACI rats, placebo group had significant loss vs cholesterol control) is on record as “slight body weight loss”. In addition, the “percent of the rats with mammary tumors” value (5% in drinking water, E2 implant, placebo group one hundred percent) is on record as “fifty-seven”. Besides, the “number of tumors per rat” value (5% in drinking water, E2 implant, placebo group three to seven) was “one to four”. Besides, the survival rate is given as 73% (160 days after E2 implantation), 20% (180 days after E2 implantation) and 0% (200 days after E2 implantation). Under “180 days after E2 implantation, placebo 17”, the average tumor area came out at 12 mm2.
